Test results: patent US11253517B2, “Small molecule regulators of steroid receptor coactivators and methods of use thereof” (BAYLOR COLLEGE OF MEDICINE, priority 2016, dated 2022)

Assays:
Assay in all cases: Kinase-Glo Luminescent Kinase Assay
Assay type in all cases: biochemical
JAK3 = biological target: T1, JAK3 (Homo sapiens, UniProt P52333)
T1 construct: purchased Promega
T1 sequence (P52333 1-1124): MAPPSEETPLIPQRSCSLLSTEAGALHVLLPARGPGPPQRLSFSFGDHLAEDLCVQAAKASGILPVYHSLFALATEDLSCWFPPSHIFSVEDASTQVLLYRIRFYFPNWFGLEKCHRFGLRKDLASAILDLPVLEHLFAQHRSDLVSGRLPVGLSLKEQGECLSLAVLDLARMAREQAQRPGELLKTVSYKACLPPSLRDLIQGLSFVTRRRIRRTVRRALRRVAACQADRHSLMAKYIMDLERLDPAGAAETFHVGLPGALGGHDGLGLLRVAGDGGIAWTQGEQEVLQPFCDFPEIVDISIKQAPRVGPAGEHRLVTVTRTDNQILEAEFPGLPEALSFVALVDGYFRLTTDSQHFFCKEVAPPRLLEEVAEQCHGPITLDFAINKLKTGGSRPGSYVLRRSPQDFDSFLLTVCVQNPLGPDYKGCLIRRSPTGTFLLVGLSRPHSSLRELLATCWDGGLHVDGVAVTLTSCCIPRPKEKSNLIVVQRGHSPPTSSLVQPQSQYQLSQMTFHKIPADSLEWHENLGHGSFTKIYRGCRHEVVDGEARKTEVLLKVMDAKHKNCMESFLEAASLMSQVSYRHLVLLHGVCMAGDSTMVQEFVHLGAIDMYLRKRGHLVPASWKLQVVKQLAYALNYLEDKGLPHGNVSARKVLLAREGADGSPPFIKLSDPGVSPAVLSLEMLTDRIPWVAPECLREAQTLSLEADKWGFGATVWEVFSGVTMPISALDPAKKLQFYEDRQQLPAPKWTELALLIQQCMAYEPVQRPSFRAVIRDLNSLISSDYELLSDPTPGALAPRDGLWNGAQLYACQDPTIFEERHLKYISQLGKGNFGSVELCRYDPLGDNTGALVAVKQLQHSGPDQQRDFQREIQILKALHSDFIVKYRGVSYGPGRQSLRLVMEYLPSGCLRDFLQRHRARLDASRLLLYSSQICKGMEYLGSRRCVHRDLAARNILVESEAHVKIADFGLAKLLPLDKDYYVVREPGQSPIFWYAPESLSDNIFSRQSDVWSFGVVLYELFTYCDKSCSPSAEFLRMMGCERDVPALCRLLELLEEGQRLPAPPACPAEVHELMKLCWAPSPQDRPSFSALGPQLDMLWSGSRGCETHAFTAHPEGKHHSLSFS
Experimental: (§1) SI-12 was also tested for its ability to disrupt kinase activity. The effects of the compound were tested on a panel of 24 kinases using a Kinase-Glo Luminescent Kinase Assay system (Promega; Madison, Wis.). SI-12 was tested, at concentrations of 1000 nM, 50 nM, and 5 nM, for its ability to interfere with recombinant kinases in the assay system. The amount of ATP to ADP conversion in the presence of SI-12 was compared to a DMSO vehicle control. The values shown in Table 3 represent the percentage of kinase activity compared to a DMSO vehicle control.
(§2) In Table 3, “−” represents less than 20% inhibition; “+” represents from 20% to 40% inhibition; “++” represents from 40% to 60% inhibition; and “+++” represents greater than 60% inhibition.

TAK1-TAB1 = biological target: T2, TAK1-TAB1 (Homo sapiens, UniProt O43318)
T2 construct: purchased Promega
T2 sequence (O43318 with tags, fused parts or gaps limits assumed): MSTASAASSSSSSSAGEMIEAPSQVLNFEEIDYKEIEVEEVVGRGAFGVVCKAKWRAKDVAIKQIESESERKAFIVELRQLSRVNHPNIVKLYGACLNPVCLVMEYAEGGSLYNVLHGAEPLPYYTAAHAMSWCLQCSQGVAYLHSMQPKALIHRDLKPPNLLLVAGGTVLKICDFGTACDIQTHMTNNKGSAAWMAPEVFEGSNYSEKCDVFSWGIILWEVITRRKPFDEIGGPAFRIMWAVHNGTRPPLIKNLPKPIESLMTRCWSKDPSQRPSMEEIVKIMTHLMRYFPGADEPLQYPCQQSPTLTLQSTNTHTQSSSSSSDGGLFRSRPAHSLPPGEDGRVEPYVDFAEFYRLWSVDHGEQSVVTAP
Experimental: as §1, §2

AMPK A1 /B1/G2 = biological target: T3, AMPK A1 /B1/G2 (Homo sapiens, UniProt Q13131)
T3 construct: purchased Promega
T3 sequence (Q13131 whole entry): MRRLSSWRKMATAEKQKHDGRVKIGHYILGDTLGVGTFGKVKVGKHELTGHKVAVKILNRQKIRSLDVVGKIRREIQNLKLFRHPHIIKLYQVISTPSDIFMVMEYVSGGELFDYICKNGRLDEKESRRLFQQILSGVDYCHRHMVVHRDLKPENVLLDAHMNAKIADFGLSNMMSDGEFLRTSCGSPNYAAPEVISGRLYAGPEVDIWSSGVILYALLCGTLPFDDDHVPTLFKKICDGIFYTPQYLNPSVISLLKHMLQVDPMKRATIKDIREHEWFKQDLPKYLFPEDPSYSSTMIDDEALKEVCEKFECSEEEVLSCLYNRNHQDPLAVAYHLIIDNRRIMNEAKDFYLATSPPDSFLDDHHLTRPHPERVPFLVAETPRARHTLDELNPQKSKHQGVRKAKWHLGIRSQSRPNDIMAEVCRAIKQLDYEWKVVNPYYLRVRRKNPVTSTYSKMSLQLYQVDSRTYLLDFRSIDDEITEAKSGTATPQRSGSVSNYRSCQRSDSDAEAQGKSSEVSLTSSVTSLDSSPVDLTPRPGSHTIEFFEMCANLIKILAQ
T3 sequence (Q9Y478 whole entry partner): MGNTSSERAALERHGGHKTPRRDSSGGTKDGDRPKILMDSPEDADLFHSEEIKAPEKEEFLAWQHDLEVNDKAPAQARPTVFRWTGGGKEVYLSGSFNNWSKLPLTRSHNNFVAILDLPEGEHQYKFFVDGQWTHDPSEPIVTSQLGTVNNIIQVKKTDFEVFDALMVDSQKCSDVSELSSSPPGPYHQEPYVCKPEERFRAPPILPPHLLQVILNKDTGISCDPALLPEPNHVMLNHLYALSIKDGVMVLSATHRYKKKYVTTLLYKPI
T3 sequence (Q9UGJ0 whole entry partner): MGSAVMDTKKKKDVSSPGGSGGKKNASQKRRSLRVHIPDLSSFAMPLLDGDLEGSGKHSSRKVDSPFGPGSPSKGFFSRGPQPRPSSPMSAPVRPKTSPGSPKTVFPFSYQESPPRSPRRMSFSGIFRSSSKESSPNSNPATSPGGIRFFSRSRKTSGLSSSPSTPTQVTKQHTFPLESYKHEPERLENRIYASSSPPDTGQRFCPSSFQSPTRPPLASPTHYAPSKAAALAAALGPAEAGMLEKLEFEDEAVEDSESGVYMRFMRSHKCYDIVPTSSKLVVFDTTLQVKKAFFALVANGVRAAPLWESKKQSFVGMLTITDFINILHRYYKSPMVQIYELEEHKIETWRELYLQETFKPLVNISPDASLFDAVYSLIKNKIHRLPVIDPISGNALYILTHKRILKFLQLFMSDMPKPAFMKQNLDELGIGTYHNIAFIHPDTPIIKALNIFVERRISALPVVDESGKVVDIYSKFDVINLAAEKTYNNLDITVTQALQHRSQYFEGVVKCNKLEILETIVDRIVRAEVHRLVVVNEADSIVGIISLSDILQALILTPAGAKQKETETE
Experimental: as §1, §2

IKKb = biological target: T4, IKKb (Homo sapiens, UniProt O14920)
T4 construct: purchased Promega
T4 sequence (O14920 1-756): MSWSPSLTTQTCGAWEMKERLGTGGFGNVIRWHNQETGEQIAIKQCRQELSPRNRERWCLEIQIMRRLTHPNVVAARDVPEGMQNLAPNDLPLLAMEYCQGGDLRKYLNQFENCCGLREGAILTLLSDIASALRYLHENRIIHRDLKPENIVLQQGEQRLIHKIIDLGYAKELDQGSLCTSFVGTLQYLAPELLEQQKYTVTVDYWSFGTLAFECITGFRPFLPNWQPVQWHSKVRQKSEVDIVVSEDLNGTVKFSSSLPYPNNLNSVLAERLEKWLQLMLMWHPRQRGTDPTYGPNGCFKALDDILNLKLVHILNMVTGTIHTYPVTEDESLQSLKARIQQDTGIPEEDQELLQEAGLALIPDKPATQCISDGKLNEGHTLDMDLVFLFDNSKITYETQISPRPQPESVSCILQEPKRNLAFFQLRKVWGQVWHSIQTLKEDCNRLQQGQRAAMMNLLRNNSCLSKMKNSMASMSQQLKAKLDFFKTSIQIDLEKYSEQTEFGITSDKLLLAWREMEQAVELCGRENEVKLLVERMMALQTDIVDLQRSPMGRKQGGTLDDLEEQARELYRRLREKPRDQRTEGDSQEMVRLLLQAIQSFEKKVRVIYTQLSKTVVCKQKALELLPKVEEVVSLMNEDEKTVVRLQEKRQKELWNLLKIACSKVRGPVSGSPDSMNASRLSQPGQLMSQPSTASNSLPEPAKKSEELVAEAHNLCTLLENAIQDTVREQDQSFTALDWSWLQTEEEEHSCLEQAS
Experimental: as §1, §2

MINK1 = biological target: T5, MINK1 (Homo sapiens, UniProt Q8N4C8)
T5 construct: purchased Promega
T5 sequence (Q8N4C8 whole entry): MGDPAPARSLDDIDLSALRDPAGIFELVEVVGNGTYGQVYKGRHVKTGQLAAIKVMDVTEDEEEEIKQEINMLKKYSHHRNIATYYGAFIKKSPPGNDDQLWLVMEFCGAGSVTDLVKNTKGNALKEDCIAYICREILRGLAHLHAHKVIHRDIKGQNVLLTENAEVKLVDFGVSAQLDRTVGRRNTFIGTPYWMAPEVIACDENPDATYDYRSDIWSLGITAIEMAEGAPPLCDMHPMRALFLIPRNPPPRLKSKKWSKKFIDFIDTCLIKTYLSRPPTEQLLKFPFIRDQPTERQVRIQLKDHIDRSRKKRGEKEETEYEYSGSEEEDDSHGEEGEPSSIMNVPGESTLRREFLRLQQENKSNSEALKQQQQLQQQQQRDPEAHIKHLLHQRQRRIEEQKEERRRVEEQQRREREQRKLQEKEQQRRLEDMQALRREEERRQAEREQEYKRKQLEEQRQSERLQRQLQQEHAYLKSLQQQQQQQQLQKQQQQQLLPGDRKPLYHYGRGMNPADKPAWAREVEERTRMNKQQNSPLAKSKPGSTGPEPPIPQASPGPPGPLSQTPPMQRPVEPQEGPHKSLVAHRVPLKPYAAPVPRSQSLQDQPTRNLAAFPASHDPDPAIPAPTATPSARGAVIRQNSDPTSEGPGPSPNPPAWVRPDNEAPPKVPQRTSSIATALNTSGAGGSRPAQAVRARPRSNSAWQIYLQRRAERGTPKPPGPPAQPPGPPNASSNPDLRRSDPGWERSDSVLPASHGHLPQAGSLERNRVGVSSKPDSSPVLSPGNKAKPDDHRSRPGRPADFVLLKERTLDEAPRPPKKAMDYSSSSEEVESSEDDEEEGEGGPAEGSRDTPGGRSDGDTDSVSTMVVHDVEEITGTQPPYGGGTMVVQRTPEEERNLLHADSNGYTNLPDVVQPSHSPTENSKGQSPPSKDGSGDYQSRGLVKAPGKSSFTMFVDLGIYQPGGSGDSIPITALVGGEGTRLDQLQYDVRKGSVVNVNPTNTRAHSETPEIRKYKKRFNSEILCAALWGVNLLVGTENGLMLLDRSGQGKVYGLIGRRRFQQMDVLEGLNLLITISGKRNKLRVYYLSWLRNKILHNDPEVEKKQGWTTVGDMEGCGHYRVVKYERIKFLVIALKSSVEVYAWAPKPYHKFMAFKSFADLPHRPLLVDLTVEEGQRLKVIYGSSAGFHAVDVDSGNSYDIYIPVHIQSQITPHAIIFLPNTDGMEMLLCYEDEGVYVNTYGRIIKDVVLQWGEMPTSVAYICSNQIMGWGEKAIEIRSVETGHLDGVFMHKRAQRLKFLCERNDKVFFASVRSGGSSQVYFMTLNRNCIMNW
Experimental: as §1, §2

SYK = biological target: T6, SYK (Homo sapiens, UniProt P43405)
T6 construct: purchased Promega
Experimental: as §1, §2

`CC(=NNc1nc2cc(F)c(F)cc2n1C)c1ccc(F)cn1` [SI-12] was tested, and the JAK3 kinase inhibition (JAK3; 5 nM) was “− (less than 20% inhibition)”, the JAK3 kinase inhibition (JAK3; 50 nM) was “+ (from 20% to 40% inhibition)” and the JAK3 kinase inhibition (JAK3; 1000 nM) was “+ (from 20% to 40% inhibition)”. For the same compound, the TAK1-TAB1 kinase inhibition (TAK1-TAB1; 5 nM) was “− (less than 20% inhibition)”, the TAK1-TAB1 kinase inhibition (TAK1-TAB1; 50 nM) was “− (less than 20% inhibition)” and the TAK1-TAB1 kinase inhibition (TAK1-TAB1; 1000 nM) was “− (less than 20% inhibition)”. The “AMPK A1 /B1/G2 kinase inhibition” value (AMPK A1 /B1/G2; 5 nM) was “− (less than 20% inhibition)”, the “AMPK A1 /B1/G2 kinase inhibition” value (AMPK A1 /B1/G2; 50 nM) was “− (less than 20% inhibition)” and the “AMPK A1 /B1/G2 kinase inhibition” value (AMPK A1 /B1/G2; 1000 nM) was “− (less than 20% inhibition)”. For the same compound, the IKKb kinase inhibition (IKKb; 5 nM) was “++ (from 40% to 60% inhibition)”, the IKKb kinase inhibition (IKKb; 50 nM) was “+++ (greater than 60% inhibition)” and the IKKb kinase inhibition (IKKb; 1000 nM) was “+++ (greater than 60% inhibition)”. For the same compound, the MINK1 kinase inhibition (MINK1; 5 nM) was “− (less than 20% inhibition)”, the MINK1 kinase inhibition (MINK1; 50 nM) was “− (less than 20% inhibition)” and the MINK1 kinase inhibition (MINK1; 1000 nM) was “− (less than 20% inhibition)”. The SYK kinase inhibition (SYK; 5 nM) was “− (less than 20% inhibition)”, the SYK kinase inhibition (SYK; 50 nM) was “− (less than 20% inhibition)” and the SYK kinase inhibition (SYK; 1000 nM) was “− (less than 20% inhibition)”.
